In patent US20100210649A1, “PYRIDAZINONES AND FURAN-CONTAINING COMPOUNDS” (Sloan-Kettering Institute for Cancer Research, priority 2006, published 2010):
Like-named read-outs stand apart in the source and are kept apart here.

Legend:
H2030 = experiment: Non Small Cell Lung Cancer proliferation assay (Alamar Blue reduction), H2030; format: cell-based, human; details: Homo sapiens; for inhibition at 10 µM: NCI-H2030, primary screening, 10 μM compound in 1% DMSO (v/v), read-out: percentage inhibition H2030; for IC50: NCI-H2030, dose response 10 M to 5 nM, read-out: Dose Response (uM) H2030
Procedure, shortened: (§1)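 Dose-response run: cells were counted, dispensed at 250 cells/well onto compound, incubated 48 hours at 37° C, then incubated with Alamar Blue for an additional 48 hours before fluorescence measurement. All wells held 1% DMSO final.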

H1975 = experiment: Non Small Cell Lung Cancer proliferation assay (Alamar Blue reduction), H1975; format: cell-based, human; details: Homo sapiens; for inhibition at 10 µM: NCI-H1975, primary screening, 10 μM compound in 1% DMSO (v/v), read-out: percentage inhibition H1975; for IC50: NCI-H1975, dose response 10 M to 5 nM, read-out: Dose Response (uM) H1975
Procedure, shortened: as §1

H1650 = experiment: Non Small Cell Lung Cancer proliferation assay (Alamar Blue reduction), H1650; format: cell-based, human; details: Homo sapiens; for inhibition at 10 µM: NCI-H1650, primary screening, 10 μM compound in 1% DMSO (v/v), read-out: percentage inhibition H1650; for IC50: NCI-H1650, dose response 10 M to 5 nM, read-out: Dose Response (uM) H1650
Procedure, shortened: as §1

H3255 = experiment: Non Small Cell Lung Cancer proliferation assay (Alamar Blue reduction), H3255; format: cell-based, human; details: Homo sapiens; for inhibition at 10 µM: NCI-H3255, primary screening, 10 μM compound in 1% DMSO (v/v), read-out: percentage inhibition H3255; for IC50: NCI-H3255, dose response 10 M to 5 nM, read-out: Dose Response (uM) H3255
Procedure, shortened: as §1

in vitro = details: human
Procedure: NHBE (normal human bronchiolar epithelial cells) are primary cells obtained from donor lungs and commercially available from Cambrex. The HPL1D (human peripheral lung epithelial) cell line has been immortalized with the SV40 large T-antigen. WI-38: human lung fibroblast cell line. HPLID, NHBE and WI-38 cells will serve as controls in the chemical screens. WT: wildtype; WT*: over-expressed wildtype.
Compounds were tested in dose response studies from […] to 5 nM against several non small cell lung cancer lines: H358, H827, H1118, H1650, H1734, H1975, H2030, and H3255, and were also studied in a 72 hour cytotoxicity assay against the NHBE and WI-38 cell lines.

H358 = experiment: Non Small Cell Lung Cancer proliferation assay (Alamar Blue reduction), H358; format: cell-based; details: Homo sapiens, read-out: Dose Response (uM) H358
Procedure: (§2) These cells have a doubling time of 1-2 days. All cell types are adherent and grow in colonies. The cells should be kept at a density between 50,000 cells/mL -500,000 cells/mL to provide for optimum growth and adequate nutrition. The cell line should be maintained at 37° C. in a humidified atmosphere with 5% CO2 in a sterile cell culture incubator.
(§3) Non Small Cell Lung Cancer Proliferation Assay.
(§4) High Controls for this assay are made by treating Non Small Cell Lung Cancer cells with 5 ul of 10% DMSO. [Final concentration in this assay is 1% DMSO].
(§5) Important Note: All compounds for testing in this assay should be done at the final concentration of 1% DMSO.
(§6) After addition, the cells are placed in cell culture incubator at 37° C. for 48 hours for complete treatment.
(§7) After drug treatment, cytotoxicity is measured by Alamar Blue reduction.
(§8) The cells are incubated for 48 hours at 37° C. to complete the Alamar Blue reduction.
(§9) The final step in the assay is to measure the amount of Alamar Blue reduction. […] The Alamar Blue fluorescence is measured at an excitation of 530 nm and emission of 590 nm.
(§10) For the NSCLC project, the cell based assay was screened against a small molecule library of approximately 200,000 compounds. The compound library is stored in our automated robotic freezer (Biophile) at −20° C. in 100% DMSO. Compound freeze and thaw cycles are kept to a minimum. […] This assay was performed on a fully automated linear track robotic platform (CRS F3 Robot System, Thermo Electron Corp., Ontario, Canada) utilizing several integrated peripherals for plate handling, liquid dispensing, and readout detection. […] The microplates are then placed at 37° C. for 48 hours to complete treatment of cells with compounds. Next, 5 ul of alamar blue was added using a liquid dispenser (Flexprop Precision Dispenser, Perkin Elmer, Mass., USA) and incubated for 48 hours at 37° C. The alamar blue prompt fluorescence was measured on Victor V (Victor^3 V, Perkin Elmer, Mass., USA) and output data files were loaded into ORIS (Oncology Research Informatics System, MSKCC, NY, USA), a screening data acquisition and analysis platform.
(§11) The dose response studies were done with the following standard procedure. First, the cells were counted and dispensed at 250 cells/well into 384-well microplates with compound. The cells were incubated for 48 hours at 37 C to complete treatment, and then alamar blue was added for an additional 48 hours. Finally, alamar blue reduction was measured and the data was loaded into ORIS, our data screening acquisition platform.

H1734 = experiment: Non Small Cell Lung Cancer proliferation assay (Alamar Blue reduction), H1734; format: cell-based, human; details: Homo sapiens, read-out: Dose Response (uM) H1734
Procedure: as §2, §3, §4, §5, §6, §7, §8, §9, §10, §11

IC50 (H2030) [µM] | IC50 (H1975) [µM] | IC50 (H1650) [µM] | IC50 (H3255) [µM] | IC50 (H358; NCI-H358) [µM] | IC50 (H1734; NCI-H1734) [µM] | SMILES | inhibition at 10 µM (H2030) [%] | inhibition at 10 µM (H1975) [%] | inhibition at 10 µM (H1650) [%] | inhibition at 10 µM (H3255) [%] | IC50 at 72 h (in vitro; CytoTox (uM) NHBE) [µM] | IC50 at 72 h (in vitro; CytoTox (uM) WI-38) [µM] | IC50 (H358; NCI-H358, dose response 10 M to 5 nM, IC50) [µM] | IC50 (H1734; NCI-H1734, dose response 10 M to 5 nM, IC50) [µM]
 |  |  |  |  |  | Cc1cc(-n2ccc3c(C#N)c(=O)n(-c4ccccc4)nc3c2=O)[nH]n1 [compound 216994] | 4 | 1 | 1 | -3 |  |  |  | 
 |  |  |  |  |  | O=c1ccc(Cl)nn1-c1ccc(Br)cc1 [compound 222922] | -30 | 3 | -20 | -7 |  |  |  | 
 |  |  |  |  |  | Cc1c(Oc2ccccc2)nnn1-c1cnn(-c2ccccc2)c(=O)c1Br [compound 223337] | -14 | 5 | 13 | 61 |  |  |  | 
 |  |  |  |  |  | O=c1c(Br)c(-n2cc(CO)nn2)cnn1-c1ccccc1 [compound 224256] | 1 | 102 | 103 | 110 |  |  |  | 
 |  |  |  |  |  | Cc1ccc(-n2nc(C#N)c(-c3ccccc3)c(C#N)c2=O)cc1 [compound 224358] | -2 | -9 | -4 | -14 |  |  |  | 
 |  |  |  |  |  | CSc1cnn(-c2ccccc2)c(=O)c1SCc1ccccc1 [compound 224764] | -10 | -5 | 21 | -32 |  |  |  | 
 |  |  |  |  |  | Cc1ccccc1-n1ncc(SCc2ccccc2)c(Cl)c1=O [compound 224765] | -15 | 1 | 7 | -12 |  |  |  | 
 |  |  |  |  |  | CCCCSc1cnn(-c2ccccc2)c(=O)c1SCCCC [compound 224766] | 95 | -29 | -12 | 24 |  |  |  | 
 |  |  |  |  |  | O=c1c(SCc2ccccc2)c(N2CCOCC2)cnn1-c1ccccc1 [compound 224770] | -8 | -8 | 65 | 24 |  |  |  | 
 |  |  |  |  |  | O=c1c(SCc2ccc(Cl)cc2Cl)c(SC2CCCCO2)cnn1-c1ccccc1 (centres unmarked) [compound 224771] | 3 | -21 | -12 | 30 |  |  |  | 
 |  |  |  |  |  | CCOC(=O)COc1cnn(-c2ccccc2)c(=O)c1Cl [compound 225042] | 6 | 10 | -18 | 5 |  |  |  | 
 |  |  |  |  |  | Cc1c(C(=O)c2ccccc2)nn(-c2ccccc2Cl)c(=N)c1C#N [compound 227247] | -1 | -9 | -16 | 11 |  |  |  | 
 |  |  |  |  |  | Cc1ccc(-n2nc(C(=O)O)c(/C=C/c3ccc(Cl)cc3Cl)c(C#N)c2=O)cc1C [compound 227626] | 0 | -14 | -15 | 71 |  |  |  | 
 |  |  |  |  |  | Cc1ccc(C(C)C)c(OCC(=O)Oc2ccc(=O)n(-c3ccccc3)n2)c1 [compound 228706] | 5 | -11 | -16 | -25 |  |  |  | 
> 10 | > 10 | > 10 | > 10 | > 10 | > 10 | COc1ccc(=O)n(-c2cccc(C)c2)n1 [compound 257029] |  |  |  |  | > 10 | > 10 |  | 
> 10 | > 10 | > 10 | > 10 | > 10 | > 10 | O=c1c(Cl)c(Cl)cnn1-c1c(Cl)cc(C(F)(F)F)cc1Cl [compound 267059] |  |  |  |  | > 10 | > 10 |  | 
> 10 | > 10 | > 10 | > 10 | > 10 | > 10 | CCN(CC)c1cnn(-c2cccc(C)c2)c(=O)c1Cl [compound 267074] |  |  |  |  | > 10 | > 10 |  | 
> 10 | > 10 | > 10 | > 10 | > 10 | > 10 | CCN(CC)c1c(Cl)cnn(-c2cccc(C)c2)c1=O [compound 267076] |  |  |  |  | > 10 | > 10 |  | 
> 10 | > 10 | > 10 | > 10 | > 10 | > 10 | Cc1cccc(-n2ncc(N=[N+]=[N-])c(Cl)c2=O)c1 [compound 267082] |  |  |  |  | > 10 | > 10 |  | 
> 10 | 6.76 | > 10 | > 10 | > 10 | > 10 | Cc1cccc(-n2ncc(I)cc2=O)c1 [compound 267086] |  |  |  |  | > 10 | > 10 |  | 
> 10 | > 10 | > 10 | > 10 | > 10 | > 10 | Cc1cccc(-n2nc(OCCCNC(=O)CCC(=O)O)c(Cl)c(Cl)c2=O)c1 [compound 273632] |  |  |  |  | > 10 | > 10 |  | 
> 10 | > 10 | > 10 | > 10 | > 10 | > 10 | O=C(O)CCC(=O)NCCCOc1cccc(-n2ncc(Br)c(Br)c2=O)c1 [compound 273633] |  |  |  |  | > 10 | > 10 |  | 

SMILES | IC50 (H2030) [µM] | IC50 (H1975) [µM] | IC50 (H1650) [µM] | IC50 (H3255) [µM] | IC50 (H358; NCI-H358) [µM] | IC50 (H1734; NCI-H1734) [µM] | inhibition at 10 µM (H2030) [%] | inhibition at 10 µM (H1975) [%] | inhibition at 10 µM (H1650) [%] | inhibition at 10 µM (H3255) [%] | IC50 at 72 h (in vitro; CytoTox (uM) NHBE) [µM] | IC50 at 72 h (in vitro; CytoTox (uM) WI-38) [µM] | IC50 (H358; NCI-H358, dose response 10 M to 5 nM, IC50) [µM] | IC50 (H1734; NCI-H1734, dose response 10 M to 5 nM, IC50) [µM]
CCOc1cnn(-c2cccc(C)c2)c(=O)c1Cl [compound 267075] | > 10 | > 10 | > 10 | > 10 |  |  |  |  |  |  | > 10 | > 10 | > 10 | > 10
